Data taken from patent publication US20220162192A1 (ESCAPE Bio, Inc., priority 2019, published 2022).

Tests used:
[1] = molecular target: T1, Recombinant G2019S-LRRK2 protein (Homo sapiens, UniProt Q5S007, G2019S); assay: LanthaScreen Kinase Activity Assay (TR-FRET), G2019S-LRRK2; type: biochemical; conditions: class symbols; 25 μM ATP, 400 nM LRRKtide, 2.9 nM kinase, 60 min at room temperature
T1 construct: purchased Life Technologies PV4881
Outline: (§1)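 Recombinant wild-type or G2019S LRRK2 (2.9 nM final) phosphorylated fluorescein-LRRKtide (400 nM) with 25 μM ATP in 50 mM Tris pH 8.5, 5 mM MgCl2, 1 mM EGTA, 0.01% Brij-35, 2 mM DTT for 60 min at RT. After EDTA stop, Tb-anti-pERM TR-FRET (520/495 nm ratio) was read. IC50 values came from 11-point, 3-fold compound dilutions.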

[2] = molecular target: T2, Recombinant wild type LRRK2 protein (Homo sapiens, UniProt Q5S007); assay: LanthaScreen Kinase Activity Assay (TR-FRET), wild type LRRK2; type: biochemical; conditions: class symbols; 25 μM ATP, 400 nM LRRKtide, 2.9 nM kinase, 60 min at room temperature; read-out: LRRK2 WT IC50
T2 construct: purchased Life Technologies PR8604B
T2 sequence (Q5S007 whole entry): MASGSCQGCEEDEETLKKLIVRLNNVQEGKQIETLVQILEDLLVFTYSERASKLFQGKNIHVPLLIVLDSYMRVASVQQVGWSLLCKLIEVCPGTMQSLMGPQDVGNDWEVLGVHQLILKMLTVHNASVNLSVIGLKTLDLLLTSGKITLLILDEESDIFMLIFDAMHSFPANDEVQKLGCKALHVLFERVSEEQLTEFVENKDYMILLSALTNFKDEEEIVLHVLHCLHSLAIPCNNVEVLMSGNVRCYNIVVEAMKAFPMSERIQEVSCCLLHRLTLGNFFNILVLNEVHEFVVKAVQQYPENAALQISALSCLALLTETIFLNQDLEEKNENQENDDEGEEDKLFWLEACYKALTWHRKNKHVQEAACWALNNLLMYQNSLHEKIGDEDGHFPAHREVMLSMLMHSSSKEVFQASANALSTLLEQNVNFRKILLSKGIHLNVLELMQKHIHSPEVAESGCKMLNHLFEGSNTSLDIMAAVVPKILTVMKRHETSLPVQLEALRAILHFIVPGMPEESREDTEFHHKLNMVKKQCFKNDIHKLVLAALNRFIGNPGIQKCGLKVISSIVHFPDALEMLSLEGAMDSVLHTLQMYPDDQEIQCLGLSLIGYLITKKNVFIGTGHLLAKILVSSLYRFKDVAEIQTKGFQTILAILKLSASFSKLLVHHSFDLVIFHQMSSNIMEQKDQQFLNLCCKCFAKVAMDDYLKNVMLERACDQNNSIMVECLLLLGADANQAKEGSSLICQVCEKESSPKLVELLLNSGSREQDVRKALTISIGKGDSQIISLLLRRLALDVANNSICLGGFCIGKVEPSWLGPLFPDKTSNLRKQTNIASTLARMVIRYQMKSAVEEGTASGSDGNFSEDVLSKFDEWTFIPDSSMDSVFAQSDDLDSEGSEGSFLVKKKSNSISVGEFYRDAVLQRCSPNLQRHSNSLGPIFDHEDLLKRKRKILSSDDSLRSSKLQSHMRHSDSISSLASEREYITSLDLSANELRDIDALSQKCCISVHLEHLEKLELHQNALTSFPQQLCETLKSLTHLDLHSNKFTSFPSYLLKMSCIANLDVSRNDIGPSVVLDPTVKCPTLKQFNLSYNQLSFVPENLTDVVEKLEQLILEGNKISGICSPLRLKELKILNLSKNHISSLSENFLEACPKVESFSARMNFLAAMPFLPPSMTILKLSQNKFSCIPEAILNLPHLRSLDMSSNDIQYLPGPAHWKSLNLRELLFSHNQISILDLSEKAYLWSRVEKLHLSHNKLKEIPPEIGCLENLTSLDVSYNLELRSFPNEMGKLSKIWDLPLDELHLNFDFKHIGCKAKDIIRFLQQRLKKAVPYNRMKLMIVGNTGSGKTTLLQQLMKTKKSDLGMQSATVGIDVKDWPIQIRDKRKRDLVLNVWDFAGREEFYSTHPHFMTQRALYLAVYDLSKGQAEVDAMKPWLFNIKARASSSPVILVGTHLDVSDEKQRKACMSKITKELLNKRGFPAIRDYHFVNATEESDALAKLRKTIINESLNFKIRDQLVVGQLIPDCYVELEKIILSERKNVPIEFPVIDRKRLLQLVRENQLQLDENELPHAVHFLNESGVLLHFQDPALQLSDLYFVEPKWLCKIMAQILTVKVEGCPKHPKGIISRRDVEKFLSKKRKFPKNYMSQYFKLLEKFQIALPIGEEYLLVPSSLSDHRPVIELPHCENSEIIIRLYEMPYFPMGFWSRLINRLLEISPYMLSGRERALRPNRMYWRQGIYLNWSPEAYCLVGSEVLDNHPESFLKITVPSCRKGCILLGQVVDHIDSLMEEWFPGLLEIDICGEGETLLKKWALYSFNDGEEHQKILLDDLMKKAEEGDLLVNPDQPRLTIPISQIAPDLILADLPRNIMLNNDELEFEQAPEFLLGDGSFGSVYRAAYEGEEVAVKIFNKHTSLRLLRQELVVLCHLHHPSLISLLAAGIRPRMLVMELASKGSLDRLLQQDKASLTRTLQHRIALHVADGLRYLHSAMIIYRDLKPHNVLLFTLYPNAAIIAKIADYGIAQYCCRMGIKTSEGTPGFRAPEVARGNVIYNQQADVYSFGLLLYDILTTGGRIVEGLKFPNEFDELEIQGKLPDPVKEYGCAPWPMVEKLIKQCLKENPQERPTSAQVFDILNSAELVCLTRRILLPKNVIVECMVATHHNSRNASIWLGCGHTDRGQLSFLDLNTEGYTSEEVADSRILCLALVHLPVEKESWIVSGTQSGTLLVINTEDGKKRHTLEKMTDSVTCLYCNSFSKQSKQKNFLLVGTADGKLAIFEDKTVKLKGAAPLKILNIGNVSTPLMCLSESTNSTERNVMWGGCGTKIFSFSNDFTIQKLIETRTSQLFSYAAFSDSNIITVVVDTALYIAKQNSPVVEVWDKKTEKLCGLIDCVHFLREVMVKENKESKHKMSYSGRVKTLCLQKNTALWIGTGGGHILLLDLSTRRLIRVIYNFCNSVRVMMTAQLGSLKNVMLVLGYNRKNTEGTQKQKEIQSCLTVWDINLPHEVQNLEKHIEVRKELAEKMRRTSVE
Outline: as §1

T1 sequence (Q5S007 whole entry G2019S): as the sequence (Q5S007 whole entry) above, with G2019S counted along it

Row | SMILES | IC50 [1] | IC50 [2]
1 | Cn1ncc2c1CCC(C(=O)Nc1ccc3[nH]nc(-c4ccoc4)c3c1)C2 (single isomer, unassigned) [Example 161a] | ≤ 0.1 µM | ≤ 0.1 µM
2 | Cn1cc2c(n1)CCC(C(=O)Nc1ccc3[nH]nc(-c4ccoc4)c3c1)C2 (single isomer, unassigned) [Example 161d] | ≤ 0.1 µM | 0.1 to 1 µM
3 | O=C(Nc1ccc2[nH]nc(-c3ccoc3)c2c1)c1cc2ncccc2s1 [Example 125, N-(3-(Furan-3-yl)-1H-indazol-5-yl)thieno[3,2-b]pyridine-2-carboxamide] | ≤ 0.1 µM | 0.1 to 1 µM
4 | Cc1cn2cncc2cc1C(=O)Nc1ccc2[nH]nc(-c3ccco3)c2c1 [Example 154, N-(3-(Furan-2-yl)-1H-indazol-5-yl)-6-methylimidazo[1,5-a]pyridine-7-carboxamide] | ≤ 0.1 µM | ≤ 0.1 µM
5 | Cc1n[nH]c2ccc(NC(=O)c3c(Cl)cn4cnnc4c3Cl)cc12 [Example 56, 6,8-Dichloro-N-(3-methyl-1H-indazol-5-yl)-[1,2,4]triazolo[4,3-a]pyridine-7-carboxamide] | ≤ 0.1 µM | 0.1 to 1 µM
6 | Cc1cn2cnnc2c(C)c1C(=O)Nc1ccc2[nH]nc(-c3ccccc3)c2c1 [Example 57, 6,8-Dimethyl-N-(3-phenyl-1H-indazol-5-yl)-[1,2,4]triazolo[4,3-a]pyridine-7-carboxamide] | ≤ 0.1 µM | ≤ 0.1 µM
7 | Cc1c(C(=O)Nc2ccc3[nH]nc(-c4ccncc4)c3c2)ccc2[nH]nnc12 [Example 12, 4-Methyl-N-(3-(pyridin-4-yl)-1H-indazol-5-yl)-1H-benzo[d][1,2,3]triazole-5-carboxamide] | ≤ 0.1 µM | 0.1 to 1 µM
8 | O=C(Nc1ccc2[nH]nc(-c3ccoc3)c2c1)c1ccc2ncoc2c1 [Example 116, N-(3-(furan-3-yl)-1H-indazol-5-yl)benzo[d]oxazole-6-carboxamide] | ≤ 0.1 µM | 0.1 to 1 µM
9 | Cc1cc2c(C)ncn2c(C)c1C(=O)Nc1ccc2[nH]nc(C)c2c1 [Example 148, 1,5,7-Trimethyl-N-(3-methyl-1H-indazol-5-yl)imidazo[1,5-a]pyridine-6-carboxamide] | ≤ 0.1 µM | 0.1 to 1 µM
10 | Cc1cc2cc[nH]c2cc1C(=O)Nc1ccc2[nH]nc(-c3ccccc3)c2c1 [Example 22, 5-Methyl-N-(3-phenyl-1H-indazol-5-yl)-1H-indole-6-carboxamide] | 0.1 to 1 µM | 1 to 10 µM

Now from value to compound:

Row | IC50 [1] | IC50 [2] | SMILES
11 | ≤ 0.1 µM | 0.1 to 1 µM | O=C(Nc1ccc2[nH]nc(-c3ccccc3)c2c1)c1cc2[nH]ncc2cc1C(F)(F)F [Example 70, N-(3-Phenyl-1H-indazol-5-yl)-5-(trifluoromethyl)-1H-indazole-6-carboxamide]
12 | ≤ 0.1 µM | 0.1 to 1 µM | Cn1ncc2c(F)c(C(=O)Nc3cc4c(-c5ccccc5)n[nH]c4cc3F)c(F)cc21 [Example 143, 4,6-Difluoro-N-(6-fluoro-3-phenyl-1H-indazol-5-yl)-1-methyl-1H-indazole-5-carboxamide]
13 | 1 to 10 µM | 1 to 10 µM | Cc1ccncc1-c1n[nH]c2ccc(NC(=O)c3c(F)cc4c(cnn4C)c3F)cc12 [Example 38, 4,6-Difluoro-1-methyl-N-(3-(4-methylpyridin-3-yl)-1H-indazol-5-yl)-1H-indazole-5-carboxamide]
14 | ≤ 0.1 µM | 0.1 to 1 µM | Cn1ncc2c(F)c(C(=O)Nc3ccc4[nH]nc(-c5cncnc5)c4c3)c(F)cc21 [Example 34, 4,6-Difluoro-1-methyl-N-(3-(pyrimidin-5-yl)-1H-indazol-5-yl)-1H-indazole-5-carboxamide]
15 | 1 to 10 µM | 1 to 10 µM | Cc1ccccc1-c1n[nH]c2ccc(NC(=O)c3c(F)cc4c(cnn4C)c3F)cc12 [Example 77, 4,6-Difluoro-1-methyl-N-(3-(o-tolyl)-1H-indazol-5-yl)-1H-indazole-5-carboxamide]
